Source: patent publication US7407968B2, “Compounds” (AstraZeneca AB, priority 2003, dated 2008)
Read-outs that look alike come from different tables or passages of the source.

Legend:
[1] = target: Human CB1 receptor from Receptor Biology (hCB1) (Homo sapiens, UniProt P21554); experiment: hCB1 receptor binding (3H-CP55,940 displacement)
[2] = target: T1, human CB2 receptor from BioSignal (hCB2) (Homo sapiens, UniProt P34972); experiment: hCB2 receptor binding (3H-CP55,940 displacement)
T1 construct: purchased BioSignal

[3] = hCB1 membranes, 3H-CP55,940 radioligand, Ki=IC50/(1+[rad]/Kd), read-out: hCB1 Ki

Human CB1 receptor from Receptor Biology (hCB1), sequence (P21554 whole entry): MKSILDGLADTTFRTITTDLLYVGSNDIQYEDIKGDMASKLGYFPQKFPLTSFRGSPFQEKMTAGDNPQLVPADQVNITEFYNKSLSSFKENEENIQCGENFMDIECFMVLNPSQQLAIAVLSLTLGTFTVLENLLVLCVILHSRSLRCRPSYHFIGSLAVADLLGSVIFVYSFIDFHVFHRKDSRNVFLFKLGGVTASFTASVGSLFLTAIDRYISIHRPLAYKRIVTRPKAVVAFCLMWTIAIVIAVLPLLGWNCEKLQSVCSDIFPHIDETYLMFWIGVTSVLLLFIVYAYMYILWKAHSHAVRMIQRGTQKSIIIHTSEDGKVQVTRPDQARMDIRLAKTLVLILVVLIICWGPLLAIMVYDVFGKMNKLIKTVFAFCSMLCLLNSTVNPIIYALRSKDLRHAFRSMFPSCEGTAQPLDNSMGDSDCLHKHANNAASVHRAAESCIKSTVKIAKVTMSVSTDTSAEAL
T1 sequence (P34972 whole entry): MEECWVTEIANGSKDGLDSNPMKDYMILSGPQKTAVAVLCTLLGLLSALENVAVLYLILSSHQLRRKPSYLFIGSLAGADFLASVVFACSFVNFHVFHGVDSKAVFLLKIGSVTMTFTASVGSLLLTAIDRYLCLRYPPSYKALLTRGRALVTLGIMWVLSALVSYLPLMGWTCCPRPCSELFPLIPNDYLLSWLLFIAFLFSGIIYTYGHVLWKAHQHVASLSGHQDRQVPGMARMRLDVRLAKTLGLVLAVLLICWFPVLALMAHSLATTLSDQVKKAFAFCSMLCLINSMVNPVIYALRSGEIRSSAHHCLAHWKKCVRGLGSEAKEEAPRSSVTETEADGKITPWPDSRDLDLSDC

Structure (SMILES)	Ki [1, 3]	Ki ([2]; hCB2 Ki (nM))	Ki ([1]; hCB1 Ki (nM))	Ki ([2]; read-out: hCB2 Ki)	Ki ([2]; hCB2 membranes, 3H-CP55,940 radioligand, Ki=IC50/(1+[rad]/Kd), read-out: hCB2 Ki)
CCOc1ccc(Cc2nc3cc(C(=O)N(CC(F)(F)F)CC(F)(F)F)ccc3n2CCC(C)C)cc1 [Compound 1]	2800 nM	3.1 nM			
CCOc1ccc(Cc2nc3cc(C(=O)N(CC(F)(F)F)CC(F)(F)F)ccc3n2CC2CC2)cc1 [Compound 2]			5080 nM	5.6 nM	
CCOc1ccc(Cc2nc3cc(C(=O)N(CC(F)(F)F)CC(F)(F)F)ccc3n2CC2CCCCC2)cc1 [Compound 3]		0.8 nM	84.8 nM		
CCOc1ccc(Cc2nc3cc(C(=O)N(CC(F)(F)F)CC(F)(F)F)ccc3n2Cc2ccco2)cc1 [Compound 4]	4690 nM				
CCOc1ccc(Cc2nc3cc(C(=O)N(CC(F)(F)F)CC(F)(F)F)ccc3n2Cc2ccco2)cc1 [Compound 7]	5530 nM				
CCOc1ccc(Cc2nc3cc(C(=O)N(CC(F)(F)F)CC(F)(F)F)ccc3n2Cc2ccncc2)cc1 [Compound 8]	5350 nM	16.7 nM			
CCOc1ccc(C(C)c2nc3cc(C(=O)N(CC(F)(F)F)CC(F)(F)F)ccc3n2Cc2ccncc2)cc1 (centres unmarked) [Compound 9]	5570 nM				165 nM
CCOc1ccc(Cc2nc3cc(C(=O)N(CC(F)(F)F)CC(F)(F)F)ccc3n2CC2CCOCC2)cc1 [Compound 13]		5.4 nM	565 nM		
CCOc1ccc(Cc2nc3cc(C(=O)N(CC(F)(F)F)CC(F)(F)F)ccc3n2C[C@H]2CCCO2)cc1 [Compound 14]		14.8 nM	5750 nM		
CCOc1ccc(Cc2nc3cc(C(=O)N(CC(F)(F)F)CC(F)(F)F)ccc3n2C[C@@H]2CCCO2)cc1 [Compound 15]		9.6 nM	5750 nM		
CCOc1ccc(Cc2nc3cc(C(=O)N(CC(F)(F)F)CC(F)(F)F)ccc3n2CC2CCCCO2)cc1 (centres unmarked) [Compound 16]	1410 nM	3.3 nM			
CCOc1ccc(Cc2nc3cc(C(=O)N(CC(F)(F)F)CC(F)(F)F)ccc3n2CC2CCOCC2)nc1 [Compound 20]		11.2 nM	2730 nM		
CCOc1ccc(Cc2nc3cc(C(=O)N(CC(F)(F)F)CC(F)(F)F)ccc3n2CCC(C)C)nc1 [Compound 21]		15.4 nM	5430 nM		
CCOc1ccc(Cc2nc3cc(C(=O)N(CC(F)(F)F)CC(F)(F)F)ccc3n2CC2CCC2)cc1 [Compound 25]		2 nM	1560 nM		
CCOc1ccc(Cc2nc3cc(C(=O)N(CC(F)(F)F)CC(F)(F)F)ccc3n2CC2CCC2)nc1 [Compound 26]		6.6 nM	5530 nM		
CCOc1ccc(Cc2nc3cc(C(=O)N(CC(F)(F)F)CC(F)(F)F)ccc3n2CC2CCCC2)nc1 [Compound 27]		3.2 nM	1360 nM		
CCOc1ccc(Cc2nc3cc(C(=O)N(CC(F)(F)F)CC(F)(F)F)ccc3n2Cc2ccoc2)nc1 [Compound 29]	5810 nM	68.7 nM			
CCOc1ccc(Cc2nc3cc(C(=O)N(CC(F)(F)F)CC(F)(F)F)ccc3n2CC2CCCCC2)nc1 [Compound 30]		3.1 nM	455 nM		
CC(C)Oc1ccc(Cc2nc3cc(C(=O)N(CC(F)(F)F)CC(F)(F)F)ccc3n2CC2CCCCC2)nc1 [Compound 32]	142 nM	2.7 nM			
CCOc1ccc(Cc2nc3cc(C(=O)N(CC(F)(F)F)CC(F)(F)F)ccc3n2Cc2ccsc2)nc1 [Compound 36]	5750 nM	14 nM			
